Experimental data published in patent US20250205268A1, “TREATMENT OF VIRUSES WITH ANTIVIRAL NUCLEOSIDES” (priority 2021, published 2025).
“And” between values parts separate entries of the source, which are not always exact repeats. Equal entries are not always repeated. Where two headings read alike, the source gives them in different places.

How the values were obtained:
SARS-CoV-2 [1] = type: in vivo; settings: for WHO Clinical Progression Scale, participants in score category 0 / WHO Clinical Progression Scale, participants in score category 1-3 / WHO Clinical Progression Scale, participants in score category 4-5 / WHO Clinical Progression Scale, participants in score category 6-9 / WHO Clinical Progression Scale, participants in score category 10: final MITT; for WHO Clinical Progression Scale, odds ratio (95% CI): proportional odds model
SARS-CoV-2 RNA = assay: Phase 2a trial: RT-PCR for SARS-CoV-2 RNA in nasopharyngeal swabs (Example 2); type: in vivo
[2] = Phase 1 study
SARS-CoV-2 [3] = type: in vivo
[4] = MITT population, through day 29
[5] = safety population, all postbaseline visits through day 29

CC(C)C(=O)OC[C@H]1O[C@@H](n2ccc(NO)nc2=O)[C@H](O)[C@@H]1O [Compound A, {(2R,3S,4R,5R)-3,4-dihydroxy-5-[4-(hydroxyimino)-2-oxo-3,4-dihydropyrimidin-1 (2H)-yl]oxolan-2-yl}methyl 2-methylpropanoate]
WHO Clinical Progression Scale, participants in score category 0 (SARS-CoV-2 [1]; Baseline): (0.0) % | WHO Clinical Progression Scale, participants in score category 1-3 (SARS-CoV-2 [1]; Baseline): (100.0) % | WHO Clinical Progression Scale, participants in score category 4-5 (SARS-CoV-2 [1]; Baseline): (0.0) % | WHO Clinical Progression Scale, participants in score category 6-9 (SARS-CoV-2 [1]; Baseline): (0.0) % | WHO Clinical Progression Scale, participants in score category 10 (SARS-CoV-2 [1]; Baseline): (0.0) % | WHO Clinical Progression Scale, participants in score category 0 (SARS-CoV-2 [1]; Day 3): (0.3) % | WHO Clinical Progression Scale, participants in score category 1-3 (SARS-CoV-2 [1]; Day 3): (97.7) % | WHO Clinical Progression Scale, participants in score category 4-5 (SARS-CoV-2 [1]; Day 3): (1.6) % | WHO Clinical Progression Scale, participants in score category 6-9 (SARS-CoV-2 [1]; Day 3): (0.4) % | WHO Clinical Progression Scale, participants in score category 10 (SARS-CoV-2 [1]; Day 3): (0.0) % | WHO Clinical Progression Scale, participants in score category 0 (SARS-CoV-2 [1]; Day 5): (1.6) % | WHO Clinical Progression Scale, participants in score category 1-3 (SARS-CoV-2 [1]; Day 5): (95.1) % | WHO Clinical Progression Scale, participants in score category 4-5 (SARS-CoV-2 [1]; Day 5): (2.4) % | WHO Clinical Progression Scale, participants in score category 6-9 (SARS-CoV-2 [1]; Day 5): (0.9) % | WHO Clinical Progression Scale, participants in score category 10 (SARS-CoV-2 [1]; Day 5): (0.0) % | WHO Clinical Progression Scale, participants in score category 0 (SARS-CoV-2 [1]; Day 10): (5.9) % | WHO Clinical Progression Scale, participants in score category 1-3 (SARS-CoV-2 [1]; Day 10): (89.0) % | WHO Clinical Progression Scale, participants in score category 4-5 (SARS-CoV-2 [1]; Day 10): (4.0) % | WHO Clinical Progression Scale, participants in score category 6-9 (SARS-CoV-2 [1]; Day 10): (1.0) % | WHO Clinical Progression Scale, participants in score category 10 (SARS-CoV-2 [1]; Day 10): (0.0) % | WHO Clinical Progression Scale, participants in score category 0 (SARS-CoV-2 [1]; Day 15): (15.2) % | WHO Clinical Progression Scale, participants in score category 1-3 (SARS-CoV-2 [1]; Day 15): (81.9) % | WHO Clinical Progression Scale, participants in score category 4-5 (SARS-CoV-2 [1]; Day 15): (2.2) % | WHO Clinical Progression Scale, participants in score category 6-9 (SARS-CoV-2 [1]; Day 15): (0.6) % | WHO Clinical Progression Scale, participants in score category 10 (SARS-CoV-2 [1]; Day 15): (0.0) % | WHO Clinical Progression Scale, participants in score category 0 (SARS-CoV-2 [1]; Day 29): (48.4) % | WHO Clinical Progression Scale, participants in score category 1-3 (SARS-CoV-2 [1]; Day 29): (50.2) % | WHO Clinical Progression Scale, participants in score category 4-5 (SARS-CoV-2 [1]; Day 29): (0.9) % | WHO Clinical Progression Scale, participants in score category 6-9 (SARS-CoV-2 [1]; Day 29): (0.3) % | WHO Clinical Progression Scale, participants in score category 10 (SARS-CoV-2 [1]; Day 29): (0.2) % | WHO Clinical Progression Scale, odds ratio (95% CI) (SARS-CoV-2 [1]; Day 3): 1.19 (0.62, 2.30) | WHO Clinical Progression Scale, odds ratio (95% CI) (SARS-CoV-2 [1]; Day 5): 1.52 (0.96, 2.39) | WHO Clinical Progression Scale, odds ratio (95% CI) (SARS-CoV-2 [1]; Day 10): 1.58 (1.14, 2.20) | WHO Clinical Progression Scale, odds ratio (95% CI) (SARS-CoV-2 [1]; Day 15): 1.36 (1.03, 1.78) | WHO Clinical Progression Scale, odds ratio (95% CI) (SARS-CoV-2 [1]; Day 29): 1.04 (0.84, 1.29) | Change from baseline in SARS-CoV-2 viral load, least squares mean (SARS-CoV-2 RNA; 200 mg, Day 3): −0.783 log10 copies/ml | Difference in least squares mean viral load change vs placebo (SARS-CoV-2 RNA; 200 mg, Day 3): 0.064 log10 copies/ml | Change from baseline in SARS-CoV-2 viral load, least squares mean (SARS-CoV-2 RNA; 200 mg, Day 5): −1.471 log10 copies/ml | Difference in least squares mean viral load change vs placebo (SARS-CoV-2 RNA; 200 mg, Day 5): −0.150 log10 copies/ml | Change from baseline in SARS-CoV-2 viral load, least squares mean (SARS-CoV-2 RNA; 200 mg, Day 7): −2.028 log10 copies/ml | Difference in least squares mean viral load change vs placebo (SARS-CoV-2 RNA; 200 mg, Day 7): −0.076 log10 copies/ml | Change from baseline in SARS-CoV-2 viral load, least squares mean (SARS-CoV-2 RNA; 200 mg, Day 14): −2.884 log10 copies/ml | Difference in least squares mean viral load change vs placebo (SARS-CoV-2 RNA; 200 mg, Day 14): −0.019 log10 copies/ml | Change from baseline in SARS-CoV-2 viral load, least squares mean (SARS-CoV-2 RNA; 400 mg, Day 3): −0.941 log10 copies/ml | Difference in least squares mean viral load change vs placebo (SARS-CoV-2 RNA; 400 mg, Day 3): −0.094 log10 copies/ml | Change from baseline in SARS-CoV-2 viral load, least squares mean (SARS-CoV-2 RNA; 400 mg, Day 5): −1.754 log10 copies/ml | Difference in least squares mean viral load change vs placebo (SARS-CoV-2 RNA; 400 mg, Day 5): −0.434 log10 copies/ml | Change from baseline in SARS-CoV-2 viral load, least squares mean (SARS-CoV-2 RNA; 400 mg, Day 7): −2.263 log10 copies/ml | Difference in least squares mean viral load change vs placebo (SARS-CoV-2 RNA; 400 mg, Day 7): −0.311 log10 copies/ml | Change from baseline in SARS-CoV-2 viral load, least squares mean (SARS-CoV-2 RNA; 400 mg, Day 14): −2.840 log10 copies/ml | Difference in least squares mean viral load change vs placebo (SARS-CoV-2 RNA; 400 mg, Day 14): 0.026 log10 copies/ml | Median time to response (SARS-CoV-2 viral RNA negativity) (SARS-CoV-2 RNA; 800 mg twice daily 5 days): 14 days and 14.0 days | Change from baseline in SARS-CoV-2 viral load, least squares mean (SARS-CoV-2 RNA; 800 mg, Day 3): −1.050 log10 copies/ml | Difference in least squares mean viral load change vs placebo (SARS-CoV-2 RNA; 800 mg, Day 3): −0.203 log10 copies/ml | Change from baseline in SARS-CoV-2 viral load, least squares mean (SARS-CoV-2 RNA; 800 mg, Day 5): −1.867 log10 copies/ml | Difference in least squares mean viral load change vs placebo (SARS-CoV-2 RNA; 800 mg, Day 5): −0.547 log10 copies/ml | Change from baseline in SARS-CoV-2 viral load, least squares mean (SARS-CoV-2 RNA; 800 mg, Day 7): −2.485 log10 copies/ml | Difference in least squares mean viral load change vs placebo (SARS-CoV-2 RNA; 800 mg, Day 7): −0.534 log10 copies/ml | Change from baseline in SARS-CoV-2 viral load, least squares mean (SARS-CoV-2 RNA; 800 mg, Day 14): −3.040 log10 copies/ml | Difference in least squares mean viral load change vs placebo (SARS-CoV-2 RNA; 800 mg, Day 14): −0.175 log10 copies/ml | Median time to clearance of viral RNA (SARS-CoV-2 RNA; 800 mg, participants seronegative at baseline (sensitivity analysis)): 14 days | hematological laboratory tests [2]: no clinically significant abnormalities | liver parameters ([2]; any dose): No clinically significant abnormalities in liver parameters | serum lipase ([2]; at least 3 days after last dose, not dose related): Transient elevations of serum lipase | proportion of participants who had a COVID-19-related acute care visit (SARS-CoV-2 [3]; [4]): 6.6% | proportion of participants who had an acute care visit (SARS-CoV-2 [3]; [4]): 7.2% | RRR, COVID-19-related acute care visit (SARS-CoV-2 [3]; MITT population, vs placebo): 33.8% | RRR, acute care visit (SARS-CoV-2 [3]; MITT population, vs placebo): 32.1% | RRR, all respiratory interventions (SARS-CoV-2 [3]; MITT population, vs placebo): 34.3% | RRR, high-flow heated and humidified device (SARS-CoV-2 [3]; MITT population, vs placebo): 26.1% | RRR, invasive mechanical ventilation (SARS-CoV-2 [3]; MITT population, vs placebo): 64.1% | RRR, noninvasive mechanical ventilation (SARS-CoV-2 [3]; MITT population, vs placebo): 75.4% | RRR, oxygen therapy with conventional oxygen (SARS-CoV-2 [3]; MITT population, vs placebo): 23.6% | mean change from baseline in CRP values versus placebo (SARS-CoV-2 [3]; [5]): earlier and larger reductions | mean change from baseline in SpO2 values versus placebo (SARS-CoV-2 [3]; [5]): earlier and larger improvements | median time to hospital discharge (SARS-CoV-2 [3]; subgroup hospitalized after randomization): 9 days | RRR, all respiratory interventions (SARS-CoV-2 [3]; subgroup hospitalized after randomization, vs placebo): 21.3%
